The subject of experiment [1] is parathyroid cell calcium receptor. The format is cell-based. The settings on record: for response in the absence of extracellular Ca2+: Ca2+-free / absence of extracellular Ca2+.
Experimental: For example, bovine parathyroid cells loaded with fura-2 are initially suspended in buffer containing 0.5 mM CaCl2. A test substance is added to the cuvette in a small volume (5-15 μl) and changes in the fluorescence signal are measured. Cumulative increases in the concentration of the test substance are made in the cuvette until some predetermined concentration is achieved or no further changes in fluorescence are noted.
This section describes procedures used to obtain and treat parathyroid cells from calves and humans. […] Human parathyroid glands, were obtained from patients undergoing surgical removal of parathyroid tissue for primary or uremic hyperparathyroidism (uremic HPT), and were treated similarly to bovine tissue.
Glands were trimmed of excess fat and connective tissue and then minced with fine scissors into cubes approximately 2-3 mm on a side. Dissociated parathyroid cells were prepared by collagenase digestion and then purified by centrifugation in Percoll buffer. The resultant parathyroid cell preparation was essentially devoid of red blood cells, adipocytes, and capillary tissue as assessed by phase contrast microscopy and Sudan black B staining. Dissociated and purified parathyroid cells were present as small clusters containing 5 to 20 cells.
The cells were then pelleted, resuspended in the same buffer, but lacking the ester, and incubated a further 15 minutes at 37° C. The cells were subsequently washed twice with PCB containing 0.5 mM CaCl2 and 0.5% BSA and maintained at room temperature (about 20° C.). Immediately before use, the cells were diluted five-fold with prewarmed 0.5 mM CaCl2 -PCB to obtain a final BSA concentration of 0.1%. The concentration of cells in the cuvette used for fluorescence recording was 1-2×10^6 /ml.
The fluorescence of indicator-loaded cells was measured at 37° C. in a spectrofluorimeter (Biomedical Instrumentation Group, University of Pennsylvania, Philadelphia, Pa.) equipped with a thermostated cuvette holder and magnetic stirrer using excitation and emission wavelengths of 340 and 510 nm, respectively. […] Leakage of dye is dependent on temperature and most occurs within the first 2 minutes after warming the cells in the cuvette. Dye leakage increases only very slowly thereafter. To correct the calibration for dye leakage, cells were placed in the cuvette and stirred at 37° C. for 2-3 minutes. The cell suspension was then removed, the cells pelleted, and the supernatant returned to a clean cuvette. […] This estimate was subtracted from the apparent Fmin.
Dissociated bovine parathyroid cells were purified on gradients of Percoll and cultured overnight in serum-free medium.
Experiment [2] addresses T1, human parathyroid cell calcium receptor (pHuPCaR 5.2, pHuPCaR 4.0) (Homo sapiens, UniProt P41180).
T1 sequence (P41180 with tags, fused parts or gaps INS536PLTFVLSVLQ/Q926R/E1011Q): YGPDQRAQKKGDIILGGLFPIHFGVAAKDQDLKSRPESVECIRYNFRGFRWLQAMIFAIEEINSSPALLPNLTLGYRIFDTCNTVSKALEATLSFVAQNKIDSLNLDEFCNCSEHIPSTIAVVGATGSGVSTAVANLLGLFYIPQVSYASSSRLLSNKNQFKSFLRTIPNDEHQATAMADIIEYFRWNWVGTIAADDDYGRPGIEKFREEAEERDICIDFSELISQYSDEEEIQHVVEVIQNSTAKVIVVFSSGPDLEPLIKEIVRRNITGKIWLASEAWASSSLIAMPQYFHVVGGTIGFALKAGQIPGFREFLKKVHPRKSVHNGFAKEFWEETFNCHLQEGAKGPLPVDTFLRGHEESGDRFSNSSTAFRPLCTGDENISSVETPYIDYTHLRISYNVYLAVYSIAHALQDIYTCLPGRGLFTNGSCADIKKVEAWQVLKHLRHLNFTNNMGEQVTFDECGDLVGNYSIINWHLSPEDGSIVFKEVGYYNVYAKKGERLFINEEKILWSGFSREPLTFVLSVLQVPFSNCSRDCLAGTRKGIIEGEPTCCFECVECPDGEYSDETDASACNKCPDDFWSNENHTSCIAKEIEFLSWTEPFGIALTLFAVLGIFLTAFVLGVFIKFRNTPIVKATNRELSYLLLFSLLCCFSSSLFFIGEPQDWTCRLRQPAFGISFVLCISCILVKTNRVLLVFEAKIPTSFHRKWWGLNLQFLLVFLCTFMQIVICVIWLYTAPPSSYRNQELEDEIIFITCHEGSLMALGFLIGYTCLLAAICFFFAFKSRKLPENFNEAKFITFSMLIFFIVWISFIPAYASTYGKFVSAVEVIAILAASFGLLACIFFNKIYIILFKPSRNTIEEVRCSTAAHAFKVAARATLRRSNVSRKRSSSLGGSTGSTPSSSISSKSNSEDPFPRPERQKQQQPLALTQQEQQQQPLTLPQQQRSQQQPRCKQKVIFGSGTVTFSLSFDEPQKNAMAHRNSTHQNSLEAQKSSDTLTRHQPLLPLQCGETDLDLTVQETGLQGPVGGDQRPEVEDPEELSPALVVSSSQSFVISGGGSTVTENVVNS
In words: Cl- current in Xenopus oocytes expressing cloned human parathyroid calcium receptor. The settings on record: for concentrations evoking increases in Cl- current: 0.3 mM extracellular Ca2+; for response in the absence of extracellular Ca2+: no extracellular Ca2+. The format is cell-based. As for the experimental part:
Representative cDNA inserts for both size classes were subcloned into the plasmid vector pBluescript SK. Linearization followed by in vitro transcription using T7 RNA polymerase produced cRNA transcripts. The cRNA transcripts were injected into Xenopus oocytes (150 ng/μl RNA; 50 nl/oocyte) for functional analysis. Following incubation periods of 2-4 days, the oocytes were assayed for the presence of functional calcium receptors. Both clone types gave rise to functional calcium receptors as assessed by the stimulation of calcium-activated chloride currents upon addition of appropriate calcium receptor agonists. […] Thus, both clones encode a functional, human parathyroid cell calcium receptor.
Xenopus oocytes were injected with pHuPCaR 5.2, the 5.2 Kb cDNA encoding a parathyroid cell calcium receptor derived from a human parathyroid cell adenoma. (See Example 27.) After two to three days, Cl^- currents were measured in the oocytes using a two-electrode voltage clamp.

For the next experiment, the target named is T2, C-cell calcium receptor (Rattus norvegicus, UniProt P48442).
T2 sequence (P48442 20-1079): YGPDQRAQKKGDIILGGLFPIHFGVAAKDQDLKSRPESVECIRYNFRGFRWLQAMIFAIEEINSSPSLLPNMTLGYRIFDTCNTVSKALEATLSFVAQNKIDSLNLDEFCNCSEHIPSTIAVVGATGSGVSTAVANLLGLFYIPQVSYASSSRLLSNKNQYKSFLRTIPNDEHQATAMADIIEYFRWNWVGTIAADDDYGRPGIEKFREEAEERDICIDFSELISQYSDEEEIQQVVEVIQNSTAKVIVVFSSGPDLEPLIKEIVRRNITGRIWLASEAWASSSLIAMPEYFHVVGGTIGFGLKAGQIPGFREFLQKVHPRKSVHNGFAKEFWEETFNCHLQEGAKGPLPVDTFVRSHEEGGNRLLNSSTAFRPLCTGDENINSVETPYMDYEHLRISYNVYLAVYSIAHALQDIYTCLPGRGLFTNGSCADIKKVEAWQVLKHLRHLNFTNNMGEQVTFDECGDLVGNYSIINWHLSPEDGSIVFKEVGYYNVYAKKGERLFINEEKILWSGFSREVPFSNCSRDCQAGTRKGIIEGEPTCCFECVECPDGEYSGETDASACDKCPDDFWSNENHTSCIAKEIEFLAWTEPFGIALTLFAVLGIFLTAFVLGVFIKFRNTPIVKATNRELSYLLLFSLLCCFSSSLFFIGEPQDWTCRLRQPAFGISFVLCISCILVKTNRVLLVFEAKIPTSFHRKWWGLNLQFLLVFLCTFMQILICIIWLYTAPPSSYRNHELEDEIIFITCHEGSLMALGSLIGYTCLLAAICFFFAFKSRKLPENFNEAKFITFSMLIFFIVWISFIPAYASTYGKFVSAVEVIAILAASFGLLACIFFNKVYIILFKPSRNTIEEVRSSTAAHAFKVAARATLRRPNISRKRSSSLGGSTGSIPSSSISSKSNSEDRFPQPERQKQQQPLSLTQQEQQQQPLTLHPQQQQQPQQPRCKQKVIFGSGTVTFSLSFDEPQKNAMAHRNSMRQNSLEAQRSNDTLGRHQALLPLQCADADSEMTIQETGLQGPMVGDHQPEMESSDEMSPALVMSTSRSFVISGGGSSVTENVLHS
In words: increase in [Ca2+]i in C-cell line 44-2. The format is cell-based. The settings on record: 1 mM extracellular Ca2+. The text has this:
C-cells appear to express a calcium receptor that is structurally similar to that present on parathyroid cells (see Example 31). […] Thus, compounds in this structural series appear to activate the C-cell calcium receptor.

Experiment [3] is described as follows: hypocalcemic response in parathyroidectomized rats. The settings on record: NPS R-467 10 mg/kg i.p., 6 hours; NPS R-568 oral. Format: in vivo, rat. From the text: To determine the primary target tissue upon which NPS R-467 acts to cause a hypocalcemic response, the parathyroid glands in rats were surgically removed. Animals receiving a total parathyroidectomy become hypocalcemic and are largely dependent upon dietary calcium to maintain serum Ca^2+ homeostasis.

“Also recorded” adds a separate entry of the source. Where two headings read alike, the source gives them in different places.

For the compound `NCCCNCCCCNCCCNCCCNCCCNC(=O)Cc1c[nH]c2ccccc12` [NPS 019], in experiment [1] (bovine parathyroid cells, fura-2, read-out: EC50 PARATHYROID (Table 6)), the EC50 came to 40 µM. In addition, in experiment [2], the “concentrations evoking increases in Cl- current” value was in the range of 3 to 30 µM and the “response in the absence of extracellular Ca2+” value (shortened to “response in the absence”) is “persisted”.
On to `COc1cccc([C@@H](C)NCCCc2ccccc2)c1` (single isomer, unassigned) [NPS R-467], for which the “increase in [Ca2+]i after 10 μM neomycin” value in experiment [1] (30 μM NPS R-467 after 10 μM neomycin, Ca2+-free buffer) is listed as “elicited a transient increase”. In experiment [1] (30 μM NPS R-467 after 100 μM neomycin, Ca2+-free buffer), the “increase in [Ca2+]i after 100 μM neomycin” value was “did not cause an increase”. Also, the “increase in [Ca2+]i (words)” value in experiment [1] (30 μM, Ca2+-free buffer) is “no increase; also recorded: did not cause any increase”; in experiment [1] (0.5 mM extracellular Ca2+) it was “rapid and transient increase”. Also, the “response in the absence” value in experiment [1] is listed as “abolished; also recorded: do not cause the mobilization of intracellular”. Further, the “effect on responses to extracellular Ca2+” value in experiment [1] (bovine parathyroid cells) is reported as “increase the sensitivity of the calcium receptor”. Besides, the “activation of oocyte-expressed human receptor” value in experiment [2] is listed as “activated the oocyte-expressed receptor at about the same concentrations”. The “increase in [Ca2+]i in 44-2 C-cells” value at C-cell calcium receptor was “concentration-dependent increase”. Moreover, in experiment [3], the “serum ionized Ca2+ in parathyroidectomized rats” value was “did not cause any change in serum ionized”.
As for `COc1cccc([C@@H](C)NCCCc2ccccc2Cl)c1` [NPS R-568, (R)-(+)-N-[3-(2-chlorophenyl)propyl]-amethyl-α-3-methoxybenzylamine], in experiment [1], the “increase in [Ca2+]i / mobilization of intracellular Ca2+” value is on record as “evokes increases” and the “response in the absence” value is listed as “fails to evoke increases; also recorded: do not cause the mobilization of intracellular”. Besides, the “effect on responses to extracellular Ca2+” value in experiment [1] (bovine parathyroid cells) was “potentiate responses to extracellular; also recorded: increase the sensitivity of the calcium receptor”. Besides, in experiment [2], the “activation of oocyte-expressed human receptor” value is on record as “activated the oocyte-expressed receptor at about the same concentrations”, the “effect on extracellular Ca2+ concentration-response curve” value is on record as “shifted the concentration-response curve to the left”, the “concentrations evoking increases in Cl- current” value was in the range of 3 to 30 µM and the “response in the absence” value is “abolished”. Moreover, the “increase in [Ca2+]i in 44-2 C-cells” value at C-cell calcium receptor is reported as “concentration-dependent increase”. The “serum ionized Ca2+ in parathyroidectomized rats” value in experiment [3] is “fails to elicit a hypocalcemic response”.
Turning to `NC[C@@H]1O[C@H](O[C@H]2[C@@H](O)[C@H](O[C@@H]3[C@@H](O)[C@H](N)C[C@H](N)[C@H]3O[C@H]3O[C@H](CN)[C@@H](O)[C@H](O)[C@H]3N)O[C@@H]2CO)[C@H](N)[C@@H](O)[C@@H]1O` [Neomycin], the “increase in [Ca2+]i / mobilization of intracellular Ca2+” value in experiment [1] was “evoked rapid and transient increases”. In addition, the “increase in [Ca2+]i (words)” value was “did not by itself cause an increase” in experiment [1] (10 μM, Ca2+-free buffer); “evoked a rapid and transient increase” in experiment [1] (100 μM, absence of extracellular Ca2+).

One may read the EC50 as the concentration that produces a half-maximal response.

(Values after patent US5858684A, “Method of screening calcium receptor-active molecules” (priority 1995, dated 1999).)
